Assays:
[1] = test system: DLD-1 cells; assay: Seahorse uncoupling assay (OCR) in DLD-1 cells; assay type: cell-based, human; conditions: testing compound 3 μM
Experimental: Seahorse assay. Approximately 3×10^4 cells were seeded in XF96 Cell Culture microplate (80 μL of 3.75×10^5 cells/mL) for all experiments. On the next day, cell culture media were replaced with either Seahorse XF modified media with 25 mM glucose and 1 mM pyruvate. After media exchange, cells were treated with 1 μM of oligomycin A, 1.0 μM FCCP and mixture of 1.0 μM of rotenone and 1.0 μM of antimycin A in standard mitochondrial stress test conditions. To determine the uncoupler effects, FCCP was replaced with an equal volume of DMSO, or a compound to be tested in DMSO solution. ATP production rate was analyzed using Agilent Seahorse XF Real-Time ATP Rate Assay.

[2] = test system: Huh7 cells; assay: Cyto-ID autophagy detection assay in Huh7 cells; assay type: cell-based, human; conditions: Huh7, 40 h, ±50 μM CQ
Experimental: Autophagy responses were monitored with the Cyto-ID autophagy detection reagent 2.0 (Enzo Life Sciences, USA) according to the manufacturer's instructions. Huh7 and PLC/PRF/5 cells were seeded in 12-well plates and treated the following day with drugs or DMSO vehicle control at the indicated concentrations. CQ was added to the corresponding wells to a final concentration of 50 μM 8 h prior harvesting. After 40 h of drug treatment, cells were collected and assessed for viability with Zombie Violet dye solution (BioLegend, USA) followed by Cyto-ID autophagy detection reagent staining. Flow cytometry analyses were performed in a BD LSRII at the Flow Cytometry and Cell Sorting Shared Resource Facility of the University of Kentucky Markey Cancer Center and data were analyzed with the FlowJo Software version 7.6.5 (Tree Star, USA). The autophagic flux was quantified by subtracting the Cyto-ID MFI value of the sample without CQ from the Cyto-ID MFI value of the sample with CQ for each condition according to the formula: […]

[3] = Gross-toxicity assay in mice; assay type: in vivo; conditions: intraperitoneal injections up to 15 mg/kg for 5-6 weeks
Experimental: FIGS. 20A-D show graphs and images illustrating FH535 effect in vivo. (A) Mice body weight after FH535 treatment. C57BL/6 mice (n=5) were treated by intraperitoneal injection with 15 mg/Kg of FH535 or DMSO vehicle control every 4 days for 6 weeks. Mice were monitored before injections for signs of body weight loss, impaired mobility, labored breathing and body score based on the Ullman-Culleré MH, Foltz CJ method. (B-D) FH535 reduces tumor growth in vivo in a xenograft tumor model. Huh7 cell were injected subcutaneously on the right flank of athymic nude mice. FH535 (15 mg/Kg) or vehicle (DMSO) were administrated by intraperitoneal injection every other day when tumor size reached 100 mm^3. (B) Tumor growth was monitored every other day until day 10 of starting treatments when mice were euthanized according to the AVMA guidelines, *p<0.05 (n=5, each group); (C) Tumor weight of excised tumors after 10 day treatment with FH535 reduced the tumor weight in 42±8% compared to vehicle treatment, **p<0.001 (n=4, each group). (D) H&E and ki67 stainings from one representative tumor of each group treatment. Pictures were taken at 400× magnification.
To validate further the in vivo anti-tumor effect of FH535, we performed a gross-toxicity assay in mice with FH535 doses ranging from 0 to 30 mg/kg. […] Next, we evaluated the in vivo anti-tumor activity of FH535 in a Huh7 tumor xenograft model. […]

[4] = test system: Huh7 tumor xenograft; assay: Huh7 tumor xenograft model in athymic nude mice; assay type: in vivo
Experimental: All animal experiments were performed in accord with the guidelines, rules and recommendations and was approved by the University of Kentucky Institutional Animal Care and Use Committee after approval (IACUC). Three- to four-weeks old female athymic nude mice (nu/nu, The Jackson Laboratory, USA) were housed in a pathogen-free environment at the Division of Laboratory Animal Resources of the Chandler Medical Center, University of Kentucky. To generate in vivo tumors, Huh7 culture cells in mid-log phase growth were collected and re-suspended in a 50% mixture of Matrigel (BD Biosciences, USA) in serum-free medium to a final concentration of 6×10^7 cells per mL. A volume of 0.1 mL of the cell suspension was injected subcutaneously in the right flank of each mouse. Mice were weighed and checked for tumor growth every other day. When tumors reached a volume of 100 mm^3, mice were randomly divided into two groups of 5: vehicle control group and FH535 group (receiving 15 mg of FH535/kg/day from a stock prepared in dimethyl sulfoxide (DMSO) at 21.7 mg/mL and diluted in serum-free medium to a final concentration of 40% DMSO). Vehicle and FH535 were administered by intraperitoneal injection every other day. Tumors were measured using an optical caliper and tumor size was calculated using the formula: 0.5×length×(width)^2. Mice were euthanized at the end of the experiment or when reaching humane end-point following AVMA guidelines. Humane end-points included animals with tumors exceeding 20 mm in maximum diameter, with ulcerated tumors, more than 20% body weight loss, impaired mobility, labored breathing or with a body condition score below 2.
Tumors from the xenograft model were formaldehyde fixed and paraffin-embedded and were used to performed H&E staining and immunohistochemistry of Ki-67 according to standard procedures.

For Cc1cc([N+](=O)[O-])ccc1NS(=O)(=O)c1cc(Cl)ccc1Cl [FH535, 2,5-dichloro-N-(2-methyl-4-nitrophenyl)benzenesulfonamide], the “uncoupling: OCR inhibited by oligomycin” value [1] was “increased OCR inhibited by oligomycin”, the “autophagic flux (Cyto-ID)” value [2] was “reduced accumulation of autophagic vesicles” and the “signs of body distress or toxicity (weight loss, ambulatory ability, respiration, dehydration)” value [3] was “did not induce major signs of body distress or toxicity”. The “reduction of tumor weight compared to vehicle” value ([4]; 15 mg/Kg i.p. every other day, 10 day treatment) was 42±8%, the “tumor volume compared to control group” value ([4]; 15 mg/kg every other day, after four days of treatment, p<0.05) was “significantly reduced” and the “proliferation index (Ki-67)” value ([4]; excised tumors, same in control group) was “greater than 95%”.
